Test results published in patent US20250101129A1, “AFFINITY SUBSTANCE, COMPOUND, AND ANTIBODY AND THEIR SALTS” (Ajinomoto Co., Inc., priority 2022, published 2025).

System: CD3-activated human T cells containing PD-1-positive cells
Experiment: Flow cytometry binding to CD3-activated human T cells
Format: cell-based
Details: primary antibody final concentration 20 g/mL as printed, Alexa Fluor 488 anti-human IgG secondary
Method: The cells used were CD3-activated human T cells containing HER2-positive SKBR-3 cells, EGFR-positive A-431 cells, and PD-1-positive cells.
200,000 cells cultured in D-MEM medium (Thermo Fisher Scientific, Inc.) supplemented with 10% FBS (Thermo Fisher Scientific, Inc.) were collected, and 20 μL of PBS containing Human TruStain FcX (Biolegend) was added, followed by blocking of Fc receptors on ice for 10 minutes. The primary antibody reaction was performed by adding the above-described antibodies as primary antibodies to a cell staining buffer (PBS containing 1% FBS) to a final concentration of 20 g/mL, adding 20 μL of the mixtures to the cells, and incubating them for 20 minutes on ice. The cells after the primary antibody reaction were washed twice with the cell staining buffer. The second antibody reaction was performed by adding 40 μL of Goat anti-Human IgG (H+L) Cross-Adsorbed Secondary Antibody, Alexa Fluor™488 (Thermo Fisher Scientific, Inc.) diluted with the cell staining buffer to 10 g/mL as the second antibody to the cells, and incubating the cells on ice for 20 minutes. The cells were washed twice with the cell staining buffer, and then subjected to analysis using Attune NxT Flow Cytometer (Thermo Fisher Scientific, Inc.).

## pembrolizumab
  cells in which fluorescence was observed (positive rate), CD3-activated human T cells: about 23%
